From article PMC8048860 (Chemmedchem, 2020)

Legend:
[1] = system: T. cruzi (Tulahuen strain, DTU VI) expressing beta-galactosidase; assay: T. cruzi growth inhibition assay; format: cell-based, Trypanosoma cruzi; conditions: read-out: T. cruzi EC50; averages of triplicate data; 3T3 host cells, 6 days
[2] = system: human hepatocellular cells (HepG2); assay: Mammalian cell growth inhibition assay, HepG2; format: cell-based; conditions: for EC50: HepG2, 48 h, read-out: Hep G2 EC50
[3] = system: human lymphocytic cells (CRL-8155); assay: Mammalian cell growth inhibition assay, CRL-8155; format: cell-based; conditions: for EC50: CRL8155, 48 h, read-out: CLR‐8155 EC50

Row | EC50 [2] [µM] | EC90 ([2]; HepG2, read-out: Hep G2 EC90 (control compound)) [µM] | Structure (SMILES) | EC50 [1] [µM] | EC50 [3] [µM] | EC90 ([3]; CRL8155, read-out: CRL‐8155 EC90 (control compound)) [µM]
1 | – | – | Cc1ccc2nc(-c3ccc(F)c(F)c3)c(CN3CCN(C4CCCCC4)CC3)n2c1 [Compound 37] | 2.6 | – | –
2 | > 50 | – | Cc1ccc2nc(-c3ccc(F)c(F)c3)c(CN3CCC(Cc4ccccc4)CC3)n2c1 [Compound 39] | 1.6 | > 50 | –
3 | 14.3 | 18.7 | CCN(CC)CCCC(C)Nc1c2ccc(Cl)cc2nc2ccc(OC)cc12 (centres unmarked) [Quinacrine] | – | 5.47 | 15.7
